Reference: patent publication US7855290B2, “Pyridine derivatives and pyrimidine derivatives (3)” (Eisai R&D Management Co., Ltd., priority 2005, dated 2010)
pIC50: −log10 of the molar value.

Columns and labels:
[1] = test system: Human gastric cancer cells (MKN-45); assay: Inhibitory activity against the proliferation of human gastric cancer cells (MKN-45); format: cell-based; settings: 72 h, MKN-45, 1% FBS RPMI1640, 3 days, Cell Counting Kit-8
Method: Human gastric cancer cells (MKN-45) were suspended in a 1% FBS-containing RPMI1640 medium (purchased from Sigma). The cell suspension (1×10^4 cells/ml) was added in a 96-well plate for cell culture (purchased from NUNC, Production No. 167008) at 0.1 ml/well, and then cultured in a 5% CO2 incubator (37° C.) overnight. After the culture, each well was supplied with 0.1 ml of a test substance diluted with a 1% FBS-containing RPMI1640 medium, followed by culturing in a 5% CO2 incubator (37° C.) for 3 days. After the culture, each well was supplied with 10 μl of Cell Counting Kit-8 (purchased from DOJINDO, Production No. 343-07623), followed by incubation in a 5% CO2 incubator (37° C.) for about 1.5 hrs. After the incubation, using the Plate Reader MTP-500 (Corona Electric), the absorbance of each well was determined at a measurement wavelength of 450 nm and a reference wavelength of 660 nm.

[2] = test system: Human umbilical vein endothelial cells (HUVECs); assay: Inhibitory activity against the growth of vascular endothelial cells stimulated with hepatocyte growth factor; format: cell-based; settings: HUVEC, HGF stimulated, third day, Cell Counting Kit-8, read-out: IC50 (cell proliferation activity)
Method: Human umbilical vein endothelial cells (HUVECs) were isolated according to the reported method (Shin Seikagaku Jikken Koza, “Cell culturing techniques”, p 197-202), and then cultured in a 5% CO2 incubator (37° C.) using EGM-2 medium (purchased from Clonetics) until the cells reached confluency.
HUVECs were suspended in a serum-free medium for endothelial cell culture (SFM, purchased from GIBCO RBL) containing 2% FBS. The cell suspension (2×10^4 cells/ml) was put in a cell culturing 96-well plate (purchased from NUNC, Production No. 167008) at 0.1 ml/well, and then cultured in a 5% CO2 incubator (37° C.) overnight. After the culture, each well was supplied with 50 μl of the test substance diluted with a 2% FBS-containing serum-free medium for endothelial cell culture and 50 μl of HGF (purchased from R&D) diluted at a concentration of 120 ng/ml with a 2% FBS-containing serum-free medium for endothelial cell culture, followed by culturing in a 5% CO2 incubator (37° C.). On the third day after the addition of the test substance, each well was supplied with 10 μl of Cell Counting Kit-8 (purchased from DOJINDO, Production No. 343-07623), and then the plate was incubated in a 5% CO2 incubator (37° C.) for about 2 hours. After the incubation, using a Plate Reader MTP-500 (Corona Electric), the absorbance of each well was determined at a measurement wavelength of 450 nm and a reference wavelength of 660 nm. While defining the absorbance of a well supplied with HGF and no test substance as 100% cell proliferation activity and the absorbance of the well supplied with no test substance and no HGF as 0% cell proliferation activity, the cell proliferation activity ratio (%) was calculated for each cell.

pIC50 [1]: 7.77
Structure (SMILES): CN1CCN(C2CCN(C(=O)Nc3cc(Oc4ccc(NC(=O)C5(C(=O)Nc6ccc(F)cc6)CC5)c(F)c4)ccn3)CC2)CC1 [Example 15, N-(2-Fluoro-4-{[2-({[4-(4-methylpiperazin-1-yl)piperidin-1-yl]carbonyl}amino)pyridin-4-yl]oxy}phenyl)-N′-(4-fluorophenyl)cyclopropane-1,1-dicarboxamide]
pIC50 [2]: 7.82
